Reference: EP4813988A1, “AI-DESIGNED BENZODIAZEPINE DERIVATIVE AND USE THEREOF” (Shenzhen Newrosetta Biosciences Co., Ltd, priority 2024, dated 2025)
Where two headings read alike, the source gives them in different places.

Assays:
Human M3 receptor = target: T1, Human M3 receptor (Homo sapiens, UniProt P20309); test: FLIPR Calcium 6 assay for inhibitory activity against Human M3 receptor in CHO cells; format: cell-based; details: FLIPR calcium signal, antagonist mode
T1 construct: expressed in transfected cells
Description: (§1) CHO cell lines stably expressing Human M2 and Human M3, respectively, were used. The effects of the compounds on the activity of the Human M2 and Human M3 receptors were determined using the FLIPR Calcium 6 Assay Kit. The effects of the test substances on Human M2 and Human M3 were studied according to changes in cell signal intensity, and the corresponding concentration-response curves were calculated.
(§2) • 1. The Human M2-CHO and Human M3-CHO cell lines were cultured in an F-12 culture medium containing 10% fetal bovine serum (AusGeneX, FBS500-S) and 0.2 mg/mL Hygromycin B (Solarbio, H8080-1g) at a culture temperature of 37 °C with 5% carbon dioxide. • 2. Cell passage: The old culture medium was removed in a biosafety cabinet, and the cells were washed once with PBS; 1 mL of 0.25% Trypsin-EDTA (Gibco, 25200-072) solution was then added; and the cells were incubated at 37 °C for about 2 min. When the cells were detached from the bottom of the dish, about 5 mL of complete culture medium pre-heated at 37 °C was added. The cell suspension was gently pipetted to separate the aggregated cells. The cell suspension was transferred to a sterile centrifuge tube and centrifuged at 1000 rpm for 5 min. • 3. In order to maintain the physiological activity of the cells, the experimental cell confluence was controlled at about 80% as observed under an inverted microscope (Olympus, CKX53).
(§3) • 1. Cell plating: Human M2-CHO and Human M3-CHO cells were digested, collected, resuspended, counted, and then seeded into a 384-well cell plate (Corning, 3764) at a density of 1.2 × 10^4 cells/25 µL /well; the cell plate was then incubated in a 5% CO2 incubator at 37 °C for about 16-20 h. • 2. On day 2, an Assay Buffer (20 mM HEPES + 1× HBSS) was prepared according to the instructions of the FLIPR Calcium 6 Assay Kit (Molecular Devices, R8191); after 20× Component A was freeze-thawed to room temperature, it was diluted to 1× loading buffer with the Assay buffer, and placed at room temperature for later use. • 3. The culture medium in the cell plate was removed, 35 µL of the 1× loading buffer described above was quickly added to each well, and the cell plate was centrifuged using a microplate low speed centrifuge and then incubated in the dark at 37 °C for 120 min. • 4. The working solutions of a positive compound and the test compounds were each prepared in a 96-well dilution plate (Biao Sen, P-0.6-BSA-96-S); 5 µL of each solution was transferred to the corresponding cell wells; and the cell plate was incubated at 37 °C for 30 min in the dark. • 5. An agonist working solution was prepared and transferred to a 384-well compound plate (Corning, 264573) at 20 µL /well. • 6. The cell plate (Corning, 3764), the 384-well compound plate (Corning, 264573), and pipette tips were placed at corresponding positions of the FLIPR instrument; 10 µL of the agonist diluted in step 5 was added to each experimental well using the FLIPR® Penta; and data were collected at the wavelength of 515-575 nm. • 7. The signal values were plotted against the compound concentrations, and based on a non-linear regression method using the GraphPad Prism software, the curves were fit, and the IC50 values were calculated.
(§4) • 1) Z′ factor = 1−3 × (SDMax+SDMin)/(AVGMax−AVGMin) [formula] • 2) CV Max = (SDMax/AVGMax) × 100% [formula] • 3) CV Min = (SDMin/AVGMin) × 100% [formula] • 4) Signal−to−noise ratio S/B = AVGMax /AVGMin [formula] • 5) The IC50 values of the compounds were calculated using the GraphPad Prism non-linear fitting formula: Y = Bottom + (Top−Bottom)/(1+10^(∧)((LogIC50−X)×HillSlope)) [formula] • 6) % inhibition rate formula: [formula] • Ratiopositive: mean value of positive control. • Ratiovehicle: mean value of negative control (0.1% DMSO).
(§5) According to the experimental method described above, the inhibitory activity of the compounds disclosed herein against Human M2 and M3 receptors was assayed with AFDX-116 as a positive control compound. Table 3. […]

Human M2 receptor = target: T2, Human M2 receptor (Homo sapiens, UniProt P08172); test: FLIPR Calcium 6 assay for inhibitory activity against Human M2 receptor in CHO cells; format: cell-based; details: for M3/M2 selectivity: IC50 ratio of M3/M2
T2 construct: expressed in transfected cells
T2 sequence (P08172 1-466): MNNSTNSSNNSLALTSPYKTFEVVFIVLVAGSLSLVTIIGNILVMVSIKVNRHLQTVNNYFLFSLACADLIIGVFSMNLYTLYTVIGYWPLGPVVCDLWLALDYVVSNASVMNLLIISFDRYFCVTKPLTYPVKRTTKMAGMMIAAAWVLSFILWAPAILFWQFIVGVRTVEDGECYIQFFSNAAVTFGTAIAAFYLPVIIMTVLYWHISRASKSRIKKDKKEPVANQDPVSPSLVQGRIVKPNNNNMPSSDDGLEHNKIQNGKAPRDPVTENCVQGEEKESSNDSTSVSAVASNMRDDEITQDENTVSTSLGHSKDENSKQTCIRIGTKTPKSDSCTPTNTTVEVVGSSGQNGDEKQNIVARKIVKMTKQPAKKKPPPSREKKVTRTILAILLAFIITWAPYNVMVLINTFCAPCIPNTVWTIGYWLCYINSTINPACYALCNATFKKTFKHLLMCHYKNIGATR
Description: as §1, §2, §3, §4, §5

guinea pig myopia model = test: In vivo efficacy evaluation in form-deprivation guinea pig myopia model (diopter by infrared photorefractor); details: 20 µL/eye once daily; for slowing down the progression of refraction decrease: 0.5 wt% eye drops, versus negative control group
Description: Objective: To evaluate the inhibitory effect of compound 2 on the progression of myopia (refractive error) in a guinea pig myopia model. Young guinea pigs have inherent refractive hyperopia, which gradually progresses towards emmetropization during eye development. Form deprivation accelerates the process of emmetropization. In this test, the delaying effect of compound 2 on the process of refractive emmetropization in modeled young guinea pigs was investigated.
Sample preparation: 0.5 wt% compound 2 eye drops were formulated with compound 2 and a 10 wt% aqueous sulfobutylether-beta-cyclodextrin solution.
Grouping: The guinea pigs were evenly divided into 3 groups according to the refractive value of the right eye: a negative control group, a model control group, and a compound 2 group.
Modeling: Animals other than the negative control group were modeled. A myopia model was made by suturing the eyelid of the right eye. The modeling procedure is as follows: After hair removal was performed on the right eyes of all animals, the right eyes were sutured in a U-shape to achieve form deprivation and accelerate the process of emmetropization. The guinea pigs were fed for 28 days after the first suture.
Administration: Starting from the day of suture modeling, eye drops were administered to the right eyes of the animals in each group according to settings (the samples for administration are shown in Table 4) at 20 µL /eye once daily for 28 consecutive days. Table 4. Administration and dosage design for each group
Test: Diopter was measured on day 15 and day 29 after modeling using an infrared photorefractor (ST-PR.01, Striatech).

[1] = Human M2-CHO cells, FLIPR calcium signal, antagonist mode, read-out: M2 IC50

T1 sequence (P20309 whole entry): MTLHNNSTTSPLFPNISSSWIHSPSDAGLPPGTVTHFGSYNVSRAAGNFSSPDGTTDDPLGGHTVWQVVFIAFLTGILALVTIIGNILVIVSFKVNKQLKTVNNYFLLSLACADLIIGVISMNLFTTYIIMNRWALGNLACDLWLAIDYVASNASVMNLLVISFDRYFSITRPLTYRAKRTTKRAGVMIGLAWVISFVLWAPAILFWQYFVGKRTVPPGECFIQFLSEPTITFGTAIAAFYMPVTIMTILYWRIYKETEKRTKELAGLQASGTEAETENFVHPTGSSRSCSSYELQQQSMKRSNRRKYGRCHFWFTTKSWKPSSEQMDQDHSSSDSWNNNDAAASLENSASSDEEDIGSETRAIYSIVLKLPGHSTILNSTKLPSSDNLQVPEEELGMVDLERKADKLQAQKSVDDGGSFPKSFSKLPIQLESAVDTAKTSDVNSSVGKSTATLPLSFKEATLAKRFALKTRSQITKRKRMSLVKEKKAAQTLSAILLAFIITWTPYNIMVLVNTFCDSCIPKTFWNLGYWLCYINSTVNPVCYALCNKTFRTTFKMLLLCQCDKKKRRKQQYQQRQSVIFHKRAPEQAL

| SMILES | IC50 (Human M3 receptor) | IC50 (Human M2 receptor; [1]) | M3/M2 selectivity (Human M2 receptor) | IC50 (Human M2 receptor) | diopter (refractive value) (guinea pig myopia model; day 15, 0.5 wt% compound 2 eye drops, right eye, form deprivation by eyelid suture) | slowing down the progression of refraction decrease (guinea pig myopia model; day 15 of administration) | slowing down the progression of refraction decrease (guinea pig myopia model; day 29 of administration) |
| --- | --- | --- | --- | --- | --- | --- | --- |
| CCN(CCN1C2CCCC1CC2)C(=O)CCC(=O)N1c2ccccc2C(=O)Nc2cccnc21 [Compound 5] | 673 nM |  | 245.6 | 2.74 nM |  |  |  |
| CCN(CCN(C)C12CC3CC(CC(C3)C1)C2)C(=O)CCC(=O)N1c2ccccc2C(=O)Nc2cccnc21 [Compound 6] | 723 nM | 0.863 nM | 838 |  |  |  |  |
| CCN(CCN(C)CC1CCC2(CCCCC2)CC1)C(=O)CCC(=O)N1c2ccccc2C(=O)Nc2cccnc21 [Compound 3] | 6820 nM | 6.54 nM | 1041 |  |  |  |  |
| CCN(CCN1CCC2(CCC2)CC1)C(=O)CCC(=O)N1c2ccccc2C(=O)Nc2cccnc21 [Compound 8] | 141 nM | 0.896 nM | 157.7 |  |  |  |  |
| CCN(CCN1CC2CC2C1)C(=O)CCC(=O)N1c2ccccc2C(=O)Nc2cccnc21 (stereo not drawn) [Compound 7] | 54.1 nM | 0.714 nM | 75.87 |  |  |  |  |
| CCN(CC)CC1CCCCN1CC(=O)N1c2ccccc2C(=O)Nc2cccnc21 (stereo not drawn) [AFDX-116, reference compound] | 2100 nM | 166 nM | 12 |  |  |  |  |
| CCN(CCN(C)C1CCC2(CCCCC2)CC1)C(=O)CCC(=O)N1c2ccccc2C(=O)Nc2cccnc21 [Compound 1] | 611 nM | 3.23 nM | 189 |  |  |  |  |
| CCN(CCN1CCC2(CCCCC2)CC1)C(=O)CCC(=O)N1c2ccccc2C(=O)Nc2cccnc21 [Compound 2] | 55.9 nM | 0.733 nM | 76 |  | increase in the positive refractive value | superior to the negative control group | comparable to the negative control group |
| CCN(CCN(C)CC12CCC(CC1)C2)C(=O)CCC(=O)N1c2ccccc2C(=O)Nc2cccnc21 [Compound 4] | 132 nM | 1.49 nM | 88.6 |  |  |  |  |

The next lines start with results.

| IC50 (Human M3 receptor) | IC50 (Human M2 receptor; [1]) | M3/M2 selectivity (Human M2 receptor) | SMILES | IC50 (Human M2 receptor) | diopter (refractive value) (guinea pig myopia model; day 15, 0.5 wt% compound 2 eye drops, right eye, form deprivation by eyelid suture) | slowing down the progression of refraction decrease (guinea pig myopia model; day 15 of administration) | slowing down the progression of refraction decrease (guinea pig myopia model; day 29 of administration) |
| --- | --- | --- | --- | --- | --- | --- | --- |
| 184 nM | 1.82 nM | 101 | CCN(CCN(C)C1CC2CCCC2C1)C(=O)CCC(=O)N1c2ccccc2C(=O)Nc2cccnc21 (stereo not drawn) [Compound 12] |  |  |  |  |
| 260 nM | 5.46 nM | 47.6 | CCN(CCN(C)C1C2CCCC21)C(=O)CCC(=O)N1c2ccccc2C(=O)Nc2cccnc21 (stereo not drawn) [Compound 13] |  |  |  |  |
| 328 nM | 0.833 nM | 394.1 | O=C1Nc2cccnc2N(C(=O)CCC(=O)N2CCCCC2CN2CCC3(CCCCC3)CC2)c2ccccc21 (stereo not drawn) [Compound 14] |  |  |  |  |
| 881 nM | 2.98 nM | 295.7 | CCN(CCN(C)C1CC2(CCC2)C1)C(=O)CCC(=O)N1c2ccccc2C(=O)Nc2cccnc21 [Compound 9] |  |  |  |  |
| 1970 nM | 2.58 nM | 762 | CCN(CCN(C)C1CC2(CCCCC2)C1)C(=O)CCC(=O)N1c2ccccc2C(=O)Nc2cccnc21 [Compound 10] |  |  |  |  |
| 277 nM | 1.86 nM | 149 | CCN(CCN(C)C1CCC2(CCCC2)C1)C(=O)CCC(=O)N1c2ccccc2C(=O)Nc2cccnc21 (stereo not drawn) [Compound 11] |  |  |  |  |
| 247 nM | 1.14 nM | 217.6 | O=C1Nc2cccnc2N(C(=O)CCC(=O)N2CCCC2CN2CCC3(CCCCC3)CC2)c2ccccc21 (stereo not drawn) [Compound 15] |  |  |  |  |
